Measurements published in patent US9549911B2, “Ginger metabolites and uses thereof” (North Carolina A&T State University, priority 2012, dated 2017).
Where two headings read alike, the source gives them in different places.

Columns and labels:
[1] = test system: human colon cancer cells HCT-116; assay: MTT growth inhibition of human cancer and normal cells (Part 2); assay type: cell-based; conditions: HCT-116, 48 h, 0 to 80 μM
Experimental: (§1) Growth inhibition of human cancer and normal cells. Cell growth inhibition was determined by a MTT colorimetric assay. Human colon cancer cells HCT-116, human lung cancer cells H-1299, human colon fibroblast cells CCD-18Co, and human lung fibroblast cells IMR-90 were plated in 96-well microtiter plates with 3000 cells/well and allowed to attach for 24 h at 37° C. […] After the cells were cultured for 48 h, the medium was aspirated and cells were treated with 200 μL fresh medium containing 2.41 mmol/L MTT. […] The reading reflected the number of viable cells and was expressed as a percentage of viable cells in the control. Both HCT-116 and H-1299 cells were cultured in McCoy's 5A medium. CCD-18Co and IMR-90 cells were cultured in Eagle's modified essential medium (EMEM). All of the above media were supplemented with 10% fetal bovine serum, 1% penicillin/streptomycin, and 1% glutamine, and the cells were kept in a 37° C. incubator with 95% humidity and 5% CO2.

[2] = test system: human lung cancer cells H-1299; assay: as above; assay type: cell-based; conditions: H-1299, 48 h, 0 to 80 μM
Experimental: as §1

A549 lung cancer cells = conditions: for tumor weight lower (minus % compared to DMSO-treated control): after 7 weeks; for BrdU+ cells/field in tumor tissue: control about 6.3; for TUNEL+ cells/field in tumor tissue: control about 15.5; for tumor size versus control group: 6S 30 mg/kg, M2 30 mg/kg, M14 10 mg/kg, oral gavage 5×/week
Experimental: Nu/J nude mice were obtained from Jackson Laboratories (Bar Harbor, Me.). Animals were randomized into 4 groups. A549 cells (5×10^6 cells) were implanted in both flanks of 8-weeks old Nu/J mice. One week after implantation, animals were given 100 μl of the following treatments through oral gavage 5 times/week: DMSO 0.25 ml/kg (control; n=4); 6S 10 mg/kg (n=4); 6S 30 mg/kg (n=4) or M2 30 mg/kg (n=5). Compounds were diluted in a solution of 5% DMSO in corn oil. Animal body weight and tumor volume were recorded for the duration of the experiment. Tumor volume was calculated by measuring the length and width of the tumors using a digital caliper and using the formula (Length×Width^2)/2. One hour before sacrifice, mice were given one last treatment dose as well as one intra-peritoneal injection of BrdU (7.5 mg/kg in 100 μl PBS). After 7 weeks, tumor tissues were harvested and weighed. A portion of the tumors was snap frozen in liquid nitrogen and another portion was placed in a histology cassette and immersed in formalin solution.
[…] tissues were sent to Precision Histology Lab (Oklahoma City, Okla.) for embedding in paraffin blocks. Then paraffin blocks were processed into 3-4 μm sections that were then put on microscope slides. Sections were then deparaffinized by using a succession of 3 baths of xylene (5 minutes each), 2 baths of absolute ethanol (5 minutes each), 95% ethanol for 3 minutes, 70% ethanol for 3 minutes, and rinsed in PBS. Immunostaining with TUNEL (terminal deoxynucleotidyl transferase dUTP nick end labeling) and BrdU staining kits was performed following manufacturer's recommendation. For staining quantification, sequential high-power field pictures of tumors were taken (10 pictures per tumor) using an A1 Zeiss microscope (Oberkochen, Germany). Images were processed using the Image J software, which was used to count positive, brown-colored cells in each field. Average number per tumor was calculated by averaging the number obtained for each field, and the average number of positive cells per group was obtained by averaging the values of each tumor belonging to the experimental group.
8 week-old nude mice (Jackson Laboratory, Maine) were randomized into 5 groups based on treatment (DMSO: n=4; 6S 10 mg/kg: n=4 (“6S 10”); 6S 30 mg/kg: n=4 (“6S 30”); M2 30 mg/kg: n=5 (“M2 30”); M14 10 mg/kg: n=4 (“M14 10”)). Animals were implanted with 5×10^6 A549 lung cancer cells (adenocarcinomic human alveolar basal epithelial cells) on each flank. The mice had access to food and water ad libitum. One week post implantation, the animals started receiving their respecting treatments through oral gavage (100 μl in corn oil and 5% DMSO), 5×/week. After 7 weeks of treatment, the tumor tissues were harvested.

A549 cancer cells = assay: MTT cell viability (Part 4); assay type: cell-based, human; conditions: A549, 24 hours, read-out: IC50 (toxicity, MTT)
A549 cells = assay: Cell Death Detection ELISA apoptosis (Part 4); assay type: cell-based, human; conditions: A549, 20 μM, 24 hours; for enrichment factor (small nucleosomes, ELISA): with pft
Experimental: The Cell Death Detection ELISA (Enzyme-linked immunoabsorbant assay) Plus kit from Roche (Mannheim, Germany) was used. […] After 24 hours, the microplate was centrifuged for 10 minutes at 1200 rpm, and the supernatant was removed. 200 μl of the lysis buffer was added in each well and incubated for 30 minutes at room temperature. The plate was then centrifuged for 10 minutes at 1200 rpm and 20 μl of the supernatant was transferred to streptavidin-coated micro-wells. ELISA assay was performed according to manufacturer's instruction. Absorbance in each well was measured at 405 nm in absorbance units (AU), and the enrichment factor (EF) in small nucleosomes was calculated with the formula EF=AU treated/AU DMSO.

HCT-116 cells = assay: Western blot analysis of apoptosis markers and p53 (Part 5); assay type: cell-based, human; conditions: for p53 expression (Western blot): HCT-116 (p53 wild-type), 24 hours, M2, 6S 10, 20 or 40 μM, 8S, M2′, 10S, M2″ 20 μM
Experimental: (§2) Cell lysates were prepared in ice-cold RIPA lysis buffer [25 mM Tris-HCl (pH 7.6), 150 mM NaCl, 1% NP-40, 1% sodium deoxycholate, 0.1% SDS, Thermo Fisher Scientific] supplemented with a protease inhibitor cocktail (AEBSF, aprotinin, bestatin, E-64, leupeptin and pepstatin A in DMSO with EDTA, Thermo Fisher Scientific). Protein content was measured by a Pierce BCA Assay Kit (Thermo Fisher Scientific). Protein contents of cell lysates (30 μg protein/lane) were resolved by SDS-PAGE. Proteins were then electro-transferred onto PVDF membranes and blots were blocked for one hour at room temperature in 1×TBS with 1% Casein (Bio-Rad Laboratories, Berkeley, Calif.). Blots were then incubated overnight at 4° C. with the desired primary antibody diluted in TBS with 0.5% Tween-20. Blots were then washed with TBS-Tween 20 and probed for 1 hour with the appropriate secondary antibody (1:1000). Protein bands were visualized with chemiluminescence using West Femto maximum detection substrate (Thermo Fisher Scientific). To confirm equal protein loading in each lane, immunoblots were stripped and re-probed for β-actin. Protein fold-induction was calculated by normalizing the intensity of the band of interest to β-actin first, and then to DMSO control lanes.

HT-29 cells = assay: as above; assay type: cell-based, human; conditions: for p53 expression (Western blot): HT-29 (p53 mutant), 24 hours, M2, 6S 10, 20 or 40 μM, 8S, M2′, 10S, M2″ 20 μM
Experimental: as §2

[3] = M2 30 mg/kg vs 6S 30 mg/kg, 7 weeks

Question: Which IC50 [1] does the source give for `CCCCC/C=C/C(=O)CCc1ccc(O)c(OC)c1` [[6]-shogaol, reference compound] here?
Answer: 18.2 µM

Question: What about the IC50 [2] of the same compound?
Answer: 17.9 µM

Question: What about the “tumor weight lower (minus % compared to DMSO-treated control)” value (A549 lung cancer cells; 10 mg/kg oral gavage 5×/week, not significant) of the same compound?
Answer: 25.6%

Question: What about the “BrdU+ cells/field in tumor tissue” value (A549 lung cancer cells; 10 mg/kg) of the same compound?
Answer: 4.7 BrdU+ cells/field

Question: What about the “TUNEL+ cells/field in tumor tissue” value (A549 lung cancer cells; 10 mg/kg) of the same compound?
Answer: 27.8 TUNEL+ cells/field

Question: What about the “tumor weight lower (minus % compared to DMSO-treated control)” value (A549 lung cancer cells; 30 mg/kg oral gavage 5×/week) of the same compound?
Answer: 40.8%

Question: And the “BrdU+ cells/field in tumor tissue” value (A549 lung cancer cells; 30 mg/kg)?
Answer: 3.4 BrdU+ cells/field

Question: And the “TUNEL+ cells/field in tumor tissue” value (A549 lung cancer cells; 30 mg/kg)?
Answer: 32.6 TUNEL+ cells/field

Question: What about the “tumor size versus control group” value (A549 lung cancer cells; 7 weeks) of the same compound?
Answer: Reduction in tumor size

Question: What about the IC50 (A549 cancer cells; listed as 6S) of the same compound?
Answer: 25.2 µM

Question: What about the “enrichment factor (small nucleosomes, ELISA)” value (A549 cells) of the same compound?
Answer: about 1

Question: And the “enrichment factor (cytoplasmic histone-associated DNA fragments, ELISA)” value (A549 cells; without pft)?
Answer: 2.2

Question: What about the “p53 expression (Western blot)” value (HCT-116 cells) of the same compound?
Answer: dose-dependent up-regulation of p53

Question: And the “p53 expression (Western blot)” value (HT-29 cells)?
Answer: dose-dependent up-regulation of p53

Question: What does the source list for `CCCCCC(CC(=O)CCc1ccc(O)c(OC)c1)SC[C@H](N)C(=O)O` (stereo partly shown) [M2, 5-cysteinyl-[6]-shogaol]?
Answer: IC50 [1]: 24.4 µM; IC50 [2]: 25.8 µM; tumor weight lower (minus % compared to DMSO-treated control) (A549 lung cancer cells; 30 mg/kg oral gavage 5×/week): 53.7%; BrdU+ cells/field in tumor tissue (A549 lung cancer cells; 30 mg/kg): 5.7 BrdU+ cells/field; TUNEL+ cells/field in tumor tissue (A549 lung cancer cells; 30 mg/kg): 28.6 TUNEL+ cells/field; tumor size versus control group (A549 lung cancer cells; 7 weeks): Reduction in tumor size; decrease of tumor burden relative to the equivalent 6S group (A549 lung cancer cells; [3]): 21.8%; lower tumor burden than the equivalent 6S group compared to DMSO (A549 lung cancer cells; [3]): 12.9%; changes in body weight between groups (A549 lung cancer cells; oral gavage up to 7 weeks): did not induce any significant changes in body weight; IC50 (A549 cancer cells): 30.4 µM; enrichment factor (small nucleosomes, ELISA) (A549 cells): 2; p53 expression (Western blot) (HCT-116 cells): dose-dependent up-regulation of p53; Bcl-2 levels (Western blot, vs DMSO) (HCT-116 cells; HCT-116, 40 μM): undetectable; PUMA induction (Western blot, vs DMSO) (HCT-116 cells; HCT-116, 40 μM): ~17 fold; XIAP expression (Western blot, vs DMSO) (HCT-116 cells; HCT-116, 40 μM): undetectable; cleaved caspase 9 (Western blot, vs DMSO) (HCT-116 cells; HCT-116, 40 μM): ~4.6 fold; cytochrome c release (Western blot, vs DMSO) (HCT-116 cells; HCT-116, 40 μM): ~2.2 fold; p53 expression (Western blot) (HT-29 cells): dose-dependent up-regulation of p53; Bcl-2 levels (Western blot, vs DMSO) (HT-29 cells; HT-29, 40 μM): ~0.1 fold; PUMA induction (Western blot, vs DMSO) (HT-29 cells; HT-29, 40 μM): ~17 fold; XIAP expression (Western blot, vs DMSO) (HT-29 cells; HT-29, 40 μM): ~0.3 fold; cleaved caspase 9 (Western blot, vs DMSO) (HT-29 cells; HT-29, 40 μM): ~4.6 fold; cytochrome c release (Western blot, vs DMSO) (HT-29 cells; HT-29, 40 μM): ~2.2 fold
